Values quoted from earlier work in publication PMC12238501 (Scientific Reports, 2025).

Solubility in water: low solubility in water
SMILES: Oc1ccc(C=Cc2cc(O)cc(O)c2)cc1 [Resveratrol, 3,4’,5-trihydroxystilbene]
